Laboratory results reported in the NIST ThermoML archive (doi:10.1016/j.jct.2008.01.006).
Numbers after ± are expanded uncertainties.

Details: Liquid, Vibrating tube method

CCCCCCCN [1-heptanamine]
mass density [kg/m3]
Details | 293.15 K | 303.15 K | 313.15 K | 323.15 K | 333.15 K | 343.15 K | 353.15 K
100 kPa | 774.9 ± 0.4 | 766.5 ± 0.4 | 758.2 ± 0.4 | 749.8 ± 0.4 | 741.4 ± 0.4 | 732.6 ± 0.5 | 724.4 ± 0.5
10000 kPa | 781.1 ± 0.5 | 773.6 ± 0.5 | 765.4 ± 0.5 | 757.6 ± 0.5 | 749.5 ± 0.5 | 741.7 ± 0.5 | 733.7 ± 0.6
20000 kPa | 787.1 ± 0.5 | 780 ± 0.6 | 772 ± 0.6 | 764.5 ± 0.6 | 756.8 ± 0.6 | 749.6 ± 0.6 | 741.9 ± 0.6
30000 kPa | 792.6 ± 0.6 | 785.8 ± 0.6 | 778.2 ± 0.7 | 771 ± 0.7 | 763.4 ± 0.7 | 756.7 ± 0.7 | 749.3 ± 0.7
40000 kPa | 797.8 ± 0.7 | 791.3 ± 0.7 | 784 ± 0.7 | 777 ± 0.8 | 769.6 ± 0.8 | 763.3 ± 0.8 | 756.2 ± 0.8
50000 kPa | 802.7 ± 0.8 | 796.5 ± 0.8 | 789.3 ± 0.8 | 782.6 ± 0.9 | 775.5 ± 0.9 | 769.4 ± 0.9 | 762.6 ± 0.9
60000 kPa | 807.4 ± 0.9 | 801.3 ± 0.9 | 794.5 ± 0.9 | 787.8 ± 0.9 | 780.9 ± 1 | 775.1 ± 1 | 768.7 ± 1
70000 kPa | 811.8 ± 0.9 | 806 ± 1 | 799.2 ± 1 | 792.7 ± 1 | 786.2 ± 1 | 780.4 ± 1.1 | 774.2 ± 1.1
80000 kPa | 816.1 ± 1 | 810.4 ± 1 | 803.7 ± 1.1 | 797.5 ± 1.1 | 791.1 ± 1.1 | 785.5 ± 1.2 | 779.5 ± 1.2
90000 kPa | 820.2 ± 1.1 | 814.6 ± 1.1 | 808 ± 1.2 | 802 ± 1.2 | 795.6 ± 1.2 | 790.3 ± 1.2 | 784.3 ± 1.3
100000 kPa | 824 ± 1.2 | 818.7 ± 1.2 | 812.2 ± 1.2 | 806.3 ± 1.3 | 800 ± 1.3 | 794.9 ± 1.3 | 789.2 ± 1.3
110000 kPa | 827.8 ± 1.2 | 822.5 ± 1.3 | 816.2 ± 1.3 | 810.6 ± 1.3 | 804.3 ± 1.4 | 799.2 ± 1.4 | 793.7 ± 1.4
120000 kPa | 831.5 ± 1.3 | 826.2 ± 1.3 | 820.1 ± 1.4 | 814.5 ± 1.4 | 808.4 ± 1.4 | 803.3 ± 1.5 | 797.9 ± 1.5
130000 kPa | 835 ± 1.3 | 829.9 ± 1.4 | 823.8 ± 1.4 | 818.4 ± 1.5 | 812.4 ± 1.5 | 807.4 ± 1.5 | 802.1 ± 1.6
140000 kPa | 838.3 ± 1.4 | 833.3 ± 1.4 | 827.4 ± 1.5 | 822.1 ± 1.5 | 816.2 ± 1.6 | 811.3 ± 1.6 | 806.1 ± 1.6

CCCCCCN [1-hexanamine]
mass density [kg/m3]
Details | 293.15 K | 303.15 K | 313.15 K | 323.15 K | 333.15 K | 343.15 K | 353.15 K
100 kPa | 765.1 ± 0.3 | 756.2 ± 0.4 | 748.2 ± 0.4 | 738.9 ± 0.4 | 730.2 ± 0.4 | 721.3 ± 0.4 | 712.4 ± 0.5
10000 kPa | 771.5 ± 0.4 | 763.5 ± 0.4 | 755.4 ± 0.4 | 746.9 ± 0.5 | 738.7 ± 0.5 | 730.6 ± 0.5 | 722.3 ± 0.5
20000 kPa | 777.6 ± 0.5 | 770.2 ± 0.5 | 762.3 ± 0.5 | 754.2 ± 0.5 | 746.3 ± 0.5 | 738.8 ± 0.6 | 731.1 ± 0.6
30000 kPa | 783.4 ± 0.6 | 776.3 ± 0.6 | 768.6 ± 0.6 | 761 ± 0.6 | 753.4 ± 0.6 | 746.4 ± 0.6 | 739 ± 0.7
40000 kPa | 788.8 ± 0.6 | 781.9 ± 0.7 | 774.6 ± 0.7 | 767.2 ± 0.7 | 759.9 ± 0.7 | 753.2 ± 0.7 | 746 ± 0.8
50000 kPa | 793.8 ± 0.7 | 787.2 ± 0.7 | 780.2 ± 0.8 | 772.9 ± 0.8 | 765.9 ± 0.8 | 759.6 ± 0.8 | 752.5 ± 0.9
60000 kPa | 798.8 ± 0.8 | 792.2 ± 0.8 | 785.3 ± 0.8 | 778.4 ± 0.9 | 771.6 ± 0.9 | 765.6 ± 0.9 | 759 ± 0.9
70000 kPa | 803.3 ± 0.9 | 796.9 ± 0.9 | 790.3 ± 0.9 | 783.5 ± 1 | 776.9 ± 1 | 771 ± 1 | 764.6 ± 1
80000 kPa | 807.7 ± 1 | 801.5 ± 1 | 794.9 ± 1 | 788.4 ± 1 | 781.9 ± 1.1 | 776.2 ± 1.1 | 770 ± 1.1
90000 kPa | 811.9 ± 1 | 805.8 ± 1.1 | 799.4 ± 1.1 | 792.9 ± 1.1 | 786.7 ± 1.2 | 781.1 ± 1.2 | 775.1 ± 1.2
100000 kPa | 815.9 ± 1.1 | 810 ± 1.1 | 803.7 ± 1.2 | 797.3 ± 1.2 | 791.2 ± 1.2 | 785.9 ± 1.3 | 780 ± 1.3
110000 kPa | 819.8 ± 1.2 | 814 ± 1.2 | 807.8 ± 1.2 | 801.7 ± 1.3 | 795.7 ± 1.3 | 790.3 ± 1.3 | 784.6 ± 1.4
120000 kPa | 823.5 ± 1.2 | 817.9 ± 1.3 | 811.7 ± 1.3 | 805.8 ± 1.3 | 799.9 ± 1.4 | 794.6 ± 1.4 | 789.1 ± 1.5
130000 kPa | 827.1 ± 1.3 | 821.6 ± 1.3 | 815.5 ± 1.4 | 809.7 ± 1.4 | 803.8 ± 1.5 | 798.8 ± 1.5 | 793.2 ± 1.5
140000 kPa | 830.5 ± 1.4 | 825.1 ± 1.4 | 819.1 ± 1.4 | 813.5 ± 1.5 | 807.6 ± 1.5 | 802.7 ± 1.6 | 797.3 ± 1.6

CCCCCN [1-pentanamine]
mass density [kg/m3]
Details | 293.15 K | 303.15 K | 313.15 K | 323.15 K | 333.15 K | 343.15 K | 353.15 K
100 kPa | 754.1 ± 0.4 | 744.7 ± 0.4 | 735.6 ± 0.4 | 726.4 ± 0.4 | 716.9 ± 0.4 | 707.5 ± 0.5 | 698 ± 0.5
10000 kPa | 760.9 ± 0.4 | 752.6 ± 0.5 | 743.8 ± 0.5 | 735.1 ± 0.5 | 726.1 ± 0.5 | 717.8 ± 0.5 | 708.7 ± 0.6
20000 kPa | 767.4 ± 0.5 | 759.6 ± 0.5 | 751.1 ± 0.5 | 742.8 ± 0.6 | 734.3 ± 0.6 | 726.5 ± 0.6 | 718 ± 0.6
30000 kPa | 773.4 ± 0.6 | 765.9 ± 0.6 | 757.9 ± 0.6 | 749.8 ± 0.6 | 741.7 ± 0.7 | 734.4 ± 0.7 | 726.3 ± 0.7
40000 kPa | 778.9 ± 0.7 | 772 ± 0.7 | 764.1 ± 0.7 | 756.3 ± 0.7 | 748.5 ± 0.8 | 741.6 ± 0.8 | 733.9 ± 0.8
50000 kPa | 784.2 ± 0.8 | 777.4 ± 0.8 | 769.8 ± 0.8 | 762.3 ± 0.8 | 754.8 ± 0.9 | 748.2 ± 0.9 | 740.8 ± 0.9
60000 kPa | 789.3 ± 0.8 | 782.7 ± 0.9 | 775.2 ± 0.9 | 768 ± 0.9 | 760.7 ± 0.9 | 754.3 ± 1 | 747.4 ± 1
70000 kPa | 794 ± 0.9 | 787.4 ± 1 | 780.3 ± 1 | 773.2 ± 1 | 766.3 ± 1 | 760 ± 1.1 | 753.3 ± 1.1
80000 kPa | 798.5 ± 1 | 792.1 ± 1 | 785.1 ± 1.1 | 778.2 ± 1.1 | 771.5 ± 1.1 | 765.4 ± 1.2 | 759.1 ± 1.2
90000 kPa | 802.8 ± 1.1 | 796.5 ± 1.1 | 789.7 ± 1.1 | 783 ± 1.2 | 776.5 ± 1.2 | 770.6 ± 1.2 | 764.2 ± 1.3
100000 kPa | 806.9 ± 1.2 | 800.8 ± 1.2 | 794.1 ± 1.2 | 787.6 ± 1.3 | 781.1 ± 1.3 | 775.4 ± 1.3 | 769.3 ± 1.4
110000 kPa | 810.8 ± 1.2 | 805 ± 1.3 | 798.4 ± 1.3 | 792.1 ± 1.3 | 785.6 ± 1.4 | 780.1 ± 1.4 | 774.1 ± 1.4
120000 kPa | 814.7 ± 1.3 | 808.8 ± 1.3 | 802.4 ± 1.4 | 796.2 ± 1.4 | 790 ± 1.5 | 784.4 ± 1.5 | 778.6 ± 1.5
130000 kPa | 818.4 ± 1.4 | 812.5 ± 1.4 | 806.4 ± 1.4 | 800.3 ± 1.5 | 794.2 ± 1.5 | 788.7 ± 1.6 | 782.9 ± 1.6
140000 kPa | 822 ± 1.4 | 816.1 ± 1.5 | 810.1 ± 1.5 | 804.2 ± 1.6 | 798 ± 1.6 | 792.8 ± 1.6 | 787.2 ± 1.7
